Measured values published in patent publication US20260315487A1, “IKK-ALPHA INHIBITORS” (Cancer Research Technology Limited, priority 2023, published 2026).
Read-outs that look alike come from different tables or passages of the source.

How the values were obtained:
panel of kinases = experiment: kinome profiling at 1 μM; format: biochemical
Excerpt: (§1) We profiled three compounds from the series across the kinome (FIG. 11). […] To identify the structural drivers for CDK inhibition, we obtained X-ray crystal structures of 5 y and 6 g SU1336 and SU1349 with CDK-2 (FIG. 12A) to potentially identify possible routes towards introducing selectivity for IKKα over the CDK enzymes as well as IKKβ. […] All three derivatives form complexes with CDK2 with the pyrrolo[2,3 -b]pyridine H-bonding to GK+3 (Leu 83 ) and the aminoindazole projected towards the G-loop (FIG. 12A), forming H-bonds with Glu 51 and Lys 33 at the back of the pocket. The adoption of the 4 SU1253 -type orientation, rather than the flipped pose observed in IKKα, is probably facilitated by Tr-stacking between the aminoindazole and the GK residue, which in the CDKs is Phe, rather than Met. […] For 6 g SU1349, the hydrophobic pendant benzyloxy group points out into solvent, but can form face-to-edge Tr-Tr interactions with Phe 82 and His 84 from the hinge. Exchanging the hydrophobic pendant benzyloxy group for the morpholinoethyl-containing substituent in 5 y SU1336 removes any direct interaction with these hinge residues, preferring to sit in a more solvent-exposed position, as befits a basic side chain that will be protonated at physiological pH (FIG. 12B).
(§2) Black, 4 SU1253; grey, 5 r SU1261; diagonal stripes, 6 g SU1349. […] All tested compounds (4 SU1253, 5 r SU1261 and 6 g SU1349 ) inhibited CDK5 and CDK9 with >80 %.

MKK7 P = molecular target: T1, MKK7 P (Homo sapiens, UniProt O14733); experiment: kinome profiling at 1 μM, MKK7; format: biochemical
T1 sequence (O14733 1-419): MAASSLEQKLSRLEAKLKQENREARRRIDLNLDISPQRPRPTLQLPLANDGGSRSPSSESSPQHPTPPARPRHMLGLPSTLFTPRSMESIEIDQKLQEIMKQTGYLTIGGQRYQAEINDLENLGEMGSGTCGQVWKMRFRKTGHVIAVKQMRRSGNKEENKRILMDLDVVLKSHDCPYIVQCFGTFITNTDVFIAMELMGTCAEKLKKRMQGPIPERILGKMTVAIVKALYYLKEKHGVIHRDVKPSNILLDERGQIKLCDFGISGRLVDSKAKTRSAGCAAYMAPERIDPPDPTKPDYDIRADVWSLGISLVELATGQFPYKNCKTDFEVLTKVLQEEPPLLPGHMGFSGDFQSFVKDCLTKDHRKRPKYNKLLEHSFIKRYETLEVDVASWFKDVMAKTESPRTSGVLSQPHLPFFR
Excerpt: as §1

IKKα = molecular target: T2, IKKα (Homo sapiens, UniProt O15111); experiment: in-house DELFIA kinase assay, IKKα; format: biochemical
T2 sequence (O15111 1-745): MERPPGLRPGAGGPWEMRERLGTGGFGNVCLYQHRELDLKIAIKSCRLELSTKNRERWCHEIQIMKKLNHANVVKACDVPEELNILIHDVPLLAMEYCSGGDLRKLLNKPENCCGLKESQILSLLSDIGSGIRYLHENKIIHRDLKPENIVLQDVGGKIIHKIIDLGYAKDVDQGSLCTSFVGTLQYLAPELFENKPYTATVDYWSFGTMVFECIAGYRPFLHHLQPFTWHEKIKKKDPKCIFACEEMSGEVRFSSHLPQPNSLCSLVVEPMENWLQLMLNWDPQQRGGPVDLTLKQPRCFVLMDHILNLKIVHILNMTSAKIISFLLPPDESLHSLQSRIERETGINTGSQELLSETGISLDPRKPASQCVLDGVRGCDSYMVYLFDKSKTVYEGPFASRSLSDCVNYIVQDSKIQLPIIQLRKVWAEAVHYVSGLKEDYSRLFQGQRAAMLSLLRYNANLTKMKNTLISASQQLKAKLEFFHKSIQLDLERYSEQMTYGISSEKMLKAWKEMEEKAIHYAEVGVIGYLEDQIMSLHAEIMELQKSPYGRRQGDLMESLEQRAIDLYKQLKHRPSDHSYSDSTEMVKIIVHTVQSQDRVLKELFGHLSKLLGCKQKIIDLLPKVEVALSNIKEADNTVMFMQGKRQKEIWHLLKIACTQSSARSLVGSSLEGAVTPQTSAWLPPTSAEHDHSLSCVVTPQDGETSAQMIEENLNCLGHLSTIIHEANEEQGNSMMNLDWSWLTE

CDK9 = CDK9 (Homo sapiens, UniProt P50750); experiment: kinome profiling at 1 μM, CDK9; format: biochemical; conditions: read-out: % inhibition of CDK9
CDK9, sequence (P50750 whole entry, species assumed): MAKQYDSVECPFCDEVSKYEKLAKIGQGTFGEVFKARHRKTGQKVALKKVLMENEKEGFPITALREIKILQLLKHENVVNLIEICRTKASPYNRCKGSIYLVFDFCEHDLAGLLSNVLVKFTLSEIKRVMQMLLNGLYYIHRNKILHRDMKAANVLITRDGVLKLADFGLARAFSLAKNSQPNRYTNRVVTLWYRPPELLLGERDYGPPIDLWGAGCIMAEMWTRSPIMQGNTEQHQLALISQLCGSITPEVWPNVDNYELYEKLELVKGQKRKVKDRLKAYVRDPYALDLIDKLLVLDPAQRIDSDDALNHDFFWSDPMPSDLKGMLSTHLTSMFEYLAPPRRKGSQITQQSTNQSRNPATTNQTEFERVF
CDK9, sequence (O60563 whole entry partner, species assumed): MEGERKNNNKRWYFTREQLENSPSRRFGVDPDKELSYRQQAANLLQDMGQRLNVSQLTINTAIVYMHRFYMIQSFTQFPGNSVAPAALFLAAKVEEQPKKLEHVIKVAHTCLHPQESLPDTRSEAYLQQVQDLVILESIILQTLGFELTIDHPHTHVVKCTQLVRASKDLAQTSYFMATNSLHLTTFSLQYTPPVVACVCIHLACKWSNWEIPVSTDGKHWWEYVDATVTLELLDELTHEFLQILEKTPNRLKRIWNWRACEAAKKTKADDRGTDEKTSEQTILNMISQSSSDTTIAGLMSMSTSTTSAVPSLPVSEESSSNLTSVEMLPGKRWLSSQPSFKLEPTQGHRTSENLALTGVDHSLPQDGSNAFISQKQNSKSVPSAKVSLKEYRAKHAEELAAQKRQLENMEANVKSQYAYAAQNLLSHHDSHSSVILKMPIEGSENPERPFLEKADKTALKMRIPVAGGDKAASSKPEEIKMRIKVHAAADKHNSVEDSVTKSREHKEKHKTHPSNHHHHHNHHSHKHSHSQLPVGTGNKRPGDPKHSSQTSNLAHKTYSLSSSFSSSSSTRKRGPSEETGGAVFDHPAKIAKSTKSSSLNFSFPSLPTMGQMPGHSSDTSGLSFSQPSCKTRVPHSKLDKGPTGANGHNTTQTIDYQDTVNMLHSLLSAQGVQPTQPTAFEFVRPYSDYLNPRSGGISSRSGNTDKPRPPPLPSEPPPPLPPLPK
Excerpt: as §1, §2

mouse hepatocytes = experiment: mouse hepatocyte clearance (cryopreserved pooled mouse CD1 hepatocytes); format: in vitro ADME; conditions: mouse hepatocytes
Protocol: Pharmacokinetic studies were contracted to Sygnature Discovery Limited. Intrinsic clearance and half life were determined using cryopreserved pooled mouse CD1 hepatocytes. Test compounds were analysed at 1 μM in Williams Media E buffer (0.01 % DMSO) at a cell density of 0.5×10^6 cells mL^−1 . Cells were incubated at 37° C. for one hour with shaking and compound depletion was measured by LC-MS/MS at six timepoints (0.25, 5, 10, 20, 40, and 60 minutes).

Compound | number of kinases inhibited by >80 % (panel of kinases; panel of 231 kinases) | number of kinases inhibited by >80 % (panel of kinases; panel of 253 kinases (FIG. 11)) | inhibition at 1 µM (MKK7 P; read-out: % inhibition of MKK7) | Ki (IKKα) | inhibition at 1 µM (CDK9; 1 μM) | off-target inhibition of MKK7, in words (MKK7 P; 1 μM, compared with 5r SU1261) | in vitro murine clearance, in words (mouse hepatocytes) | inhibition at 1 µM (CDK9)
Nc1n[nH]c2ccc(-c3ccnc4[nH]c(-c5cccc(OCc6ccccc6)c5)cc34)cc12 [5r SU1261, 5-(2-(3-(benzyloxy)phenyl)-1 H-pyrrolo[2,3-b]pyridin-4-yl)-1 H-indazol-3-amine] | 10 kinases | 10 kinases | > 80% | 10 nM | > 80% |  |  | 
Nc1n[nH]c2ccc(-c3ccnc4[nH]c(-c5ccnc(OCc6ccccc6)c5)cc34)cc12 [6g SU1349, 5-(2-(2-(Benzyloxy)pyridin-4-yl)-1 H-pyrrolo[2,3-b]pyridin-4-yl)-1 H-indazol-3-amine] |  | 4 kinases |  | 16 nM |  | significantly reduced off-target inhibition | sufficiently low in vitro murine clearance | > 80%
